Test results: ChEMBL document CHEMBL1201862, “PubChem BioAssay data set” (2004)
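48-hour exposure; five concentrations; linearly interpolated endpoints. GI50 marks 50% less growth.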 Active and inactive are the calls of the source. Cut-off read from the data, not from the text of the source: active = GI50 up to about 1.1 µM and inactive = higher.

Tests used:
Test in all cases: inhibition of tumour cell growth, NCI panel, 48 h
UACC-257 = test system: UACC-257
IGROV-1 = test system: IGROV-1
786-0 = test system: 786-0
HOP-62 = test system: HOP-62
UACC-62 = test system: UACC-62
HL-60 = test system: HL-60
LOX IMVI = test system: LOX IMVI
SN12C = test system: SN12C
KM12 = test system: KM12
NCI-H522 = test system: NCI-H522
SF-295 = test system: SF-295
HOP-92 = test system: HOP-92
A549 = test system: A549
SW-620 = test system: SW-620
CAKI-1 = test system: CAKI-1
SF-539 = test system: SF-539
U-251 = test system: U-251

Measured: GI50

CC1(C)C(=O)N(c2ccccc2)C(=O)N1c1nc2ccccc2[nH]1
inactive: UACC-257 > 100 µM | IGROV-1 > 100 µM | 786-0 > 100 µM | HOP-62 > 100 µM | UACC-62 > 100 µM | HL-60 63.2 µM | LOX IMVI 85.9 µM | SN12C > 100 µM | KM12 > 100 µM | NCI-H522 54.7 µM | SF-295 > 100 µM | HOP-92 > 100 µM | A549 > 100 µM | SW-620 17.4 µM | CAKI-1 > 100 µM

CC(=O)CNC(=O)OC(C)(C)C
inactive: SF-539 > 100 µM | UACC-257 > 100 µM | IGROV-1 > 100 µM | 786-0 > 100 µM | HOP-62 > 100 µM | UACC-62 > 100 µM | HL-60 > 100 µM | U-251 > 100 µM | SN12C > 100 µM | KM12 > 100 µM | NCI-H522 > 100 µM | SF-295 > 100 µM | HOP-92 > 100 µM | A549 > 100 µM | SW-620 > 100 µM | CAKI-1 > 100 µM

O=C(COc1ccc2c(=O)cc(-c3ccc(Cl)cc3)oc2c1)N1CCN(c2ccccc2)CC1
inactive: SF-539 > 100 µM | UACC-257 > 100 µM | IGROV-1 > 100 µM | 786-0 > 100 µM | HOP-62 > 100 µM | UACC-62 > 100 µM | HL-60 59.3 µM | U-251 > 100 µM | LOX IMVI > 100 µM | SN12C 65.9 µM | KM12 89.9 µM | SF-295 > 100 µM | HOP-92 64.1 µM | A549 48.9 µM | SW-620 > 100 µM | CAKI-1 > 100 µM

COc1ccc(-c2nc3c(nc2-c2ccc(OC)cc2)C(N)=NS(=O)(=O)N3)cc1
inactive: SF-539 > 100 µM | UACC-257 > 100 µM | IGROV-1 > 100 µM | 786-0 > 100 µM | HOP-62 > 100 µM | UACC-62 > 100 µM | HL-60 > 100 µM | U-251 > 100 µM | LOX IMVI > 100 µM | SN12C > 100 µM | KM12 > 100 µM | NCI-H522 > 100 µM | SF-295 > 100 µM | A549 > 100 µM | SW-620 > 100 µM | CAKI-1 > 100 µM

CN(C)C(=S)Nc1nnc(Nc2ccccc2)s1
inactive: SF-539 > 100 µM | UACC-257 59 µM | IGROV-1 > 100 µM | 786-0 > 100 µM | HOP-62 > 100 µM | HL-60 > 100 µM | U-251 > 100 µM | LOX IMVI > 100 µM | SN12C > 100 µM | KM12 > 10 µM | NCI-H522 9.51 µM | HOP-92 > 100 µM | A549 > 100 µM | SW-620 > 100 µM | CAKI-1 > 100 µM

O=C1Nc2ccccc2C12CCNC2Cc1ccccc1 (stereo unspecified)
inactive: SF-539 > 100 µM | UACC-257 > 100 µM | IGROV-1 > 100 µM | 786-0 > 100 µM | HOP-62 > 100 µM | UACC-62 > 100 µM | HL-60 > 100 µM | U-251 > 100 µM | LOX IMVI > 100 µM | KM12 > 100 µM | SF-295 > 100 µM | HOP-92 76.6 µM | A549 > 100 µM | SW-620 > 100 µM | CAKI-1 > 100 µM

CCOc1ccc(N2C(=O)/C(=C/c3ccc(N(CCC#N)CCC#N)cc3)N=C2c2cc([N+](=O)[O-])ccc2Cl)cc1
inactive: SF-539 27.2 µM | 786-0 12.4 µM | HOP-62 73.1 µM | UACC-62 26.7 µM | HL-60 47.6 µM | U-251 51.5 µM | LOX IMVI 23 µM | SN12C 63 µM | KM12 18.9 µM | SF-295 24.2 µM | A549 45 µM | SW-620 23 µM | CAKI-1 14.8 µM
